According to PubChem BioAssay (NCI):
Several values for one entry are separate records, joined by “and”; a condition that tells them apart may be missing. Equal entries are not always repeated.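 Five compound concentrations were applied to cells in 96-well plates for 48 hours; endpoints were derived by simple linear interpolation of the resulting dose-response curve. GI50 marks 50% less growth. At the TGI there is no net growth.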

What was measured:
Assay in all cases: NCI anticancer screen, dose series, 48 h
[1] = tested on: SF-539 CNS
[2] = tested on: K-562 leukemia
[3] = tested on: TK-10 renal
[4] = tested on: OVCAR-8 ovarian
[5] = tested on: HCT-15 colon
[6] = tested on: SNB-75 CNS
[7] = tested on: U251 CNS
[8] = tested on: HOP-62 NSCLC
[9] = tested on: HOP-92 NSCLC
[10] = tested on: OVCAR-3 ovarian

Compound	GI50 [1]	TGI [1]	GI50 [2]	TGI [2]	GI50 [3]	TGI [3]	GI50 [4]	TGI [4]	GI50 [5]	TGI [5]	GI50 [6]	TGI [6]	GI50 [7]	TGI [7]	GI50 [8]	TGI [8]	GI50 [9]	TGI [9]	TGI [10]	GI50 [10]
CCCCCCN1CCN(Cc2ccc(N(CC)CC)cc2)C(=O)C1=O	2.57 µM	8.23 µM	0.832 µM	75.4 µM	10.3 µM	77.5 µM	5.42 µM	> 100 µM	1.07 µM	> 100 µM	1.95 µM	13.1 µM	3.99 µM	62.3 µM	4.97 µM	> 100 µM	4.21 µM	38.2 µM		
Cc1ccc2nc(N/N=C/c3cccc(C)n3)cc(C)c2c1		38.3 µM		> 100 µM		30.4 µM		49.5 µM		52.7 µM		36.6 µM		33.4 µM		36.8 µM		37.2 µM	30 µM	
O=CN1CCN(C=S)CC1		> 100 µM		> 100 µM		> 100 µM		> 100 µM		> 100 µM		> 100 µM		> 100 µM		> 100 µM		> 100 µM	> 100 µM	
O=[N+]([O-])/C=C/c1ccc([N+](=O)[O-])cc1	2.46 µM	4.89 µM	2.4 µM	12.4 µM	2.7 µM	6.19 µM	3.68 µM	15.1 µM	2.02 µM	5.58 µM	1.87 µM	4.02 µM	1.78 µM	3.52 µM	10.9 µM	23.7 µM	13 µM	28.9 µM	3.28 µM	1.84 µM
CNC(=O)OCc1[nH]ccc2c(C)c3nc4ccc(OC)cc4c3cc12		> 31.8 µM		> 22.5 µM		> 79.1 µM		> 24.9 µM		> 21.9 µM		> 100 µM		> 59.5 µM		56 µM		> 100 µM	> 67.8 µM	
CC[C@@]1(O)C(=O)OCc2c1cc1n(c2=O)Cc2cc3c(NC(=O)CN)cccc3nc2-1				> 100 µM		> 81.7 µM		> 43.8 µM		> 100 µM		0.693 µM		5.16 µM		9.22 µM		> 100 µM	9.34 µM	
C[C@@H]1COC(Nc2ccc3ncnc(Nc4ccc(OCc5nccs5)c(Cl)c4)c3c2)=N1	> 10 µM and 11.9 µM	> 10 µM and 29.1 µM	4.05 µM and 4.08 µM	> 10 µM and 33.2 µM	0.235 µM and 0.259 µM	> 10 µM and 14.8 µM	2.97 µM and 2.65 µM	> 10 µM and 16.8 µM	4.07 µM and 5.32 µM	> 10 µM and 25.6 µM	8.88 µM and 6.83 µM	> 10 µM and 21.4 µM	9.24 µM and 8.55 µM	> 10 µM and 26.6 µM	6.8 µM and 7.18 µM	> 10 µM and 20.7 µM	0.633 µM and 0.782 µM	8.43 µM and 5.68 µM	> 10 µM and 14.2 µM	2.07 µM and 2.67 µM
COc1cc2c3c(n(CCCNCCNCCCN)c(=O)c2cc1OC)-c1cc2c(cc1C3=O)OCO2	8.55 µM	23.6 µM	3.43 µM	> 100 µM	7.92 µM	27 µM	2.39 µM	6.45 µM	2.24 µM	20 µM	10.3 µM	26.7 µM	0.0177 µM	0.422 µM	2.88 µM	15.6 µM	21 µM	72.2 µM	7.63 µM	2.22 µM
COc1ccc(C2=C(c3cc(OC)c(OC)c(OC)c3)C(=O)OC2)cc1OC	0.301 µM	4.1 µM	< 0.0153 µM	> 100 µM	< 0.0283 µM	1.91 µM	0.163 µM		0.0354 µM	> 100 µM	> 100 µM	> 100 µM	0.187 µM	> 100 µM	0.0465 µM	> 100 µM	6.65 µM	> 100 µM	< 0.0206 µM	< 0.0112 µM
COC(=O)C1=Cc2c(cc(OC)c(OC)c2OC)[C@H](c2ccc(OC)c(OC)c2OC)C1C(=O)OC (some centres undefined)		> 100 µM		> 100 µM		> 100 µM		> 100 µM		> 100 µM		> 100 µM		> 100 µM		> 100 µM		> 100 µM	> 100 µM	
NC1=NC(c2ccc(F)cc2)C2=C(N1)c1ccc3ccccc3c1OCC2 (centres undefined)	0.343 µM	2.45 µM	3.1 µM	> 100 µM	14.5 µM	> 100 µM	14.5 µM	> 100 µM	3.25 µM	> 100 µM	16.5 µM	70.5 µM	8.49 µM	> 100 µM	23.5 µM	> 100 µM	36.3 µM	> 100 µM	> 100 µM	2.73 µM
COc1cc2c(cc1OC)-c1c(c3ccc([N+](=O)[O-])cc3c(=O)n1CCCN)C2=O	0.124 µM	1.29 µM	0.955 µM	2.65 µM	7.24 µM	17.1 µM	1.01 µM	4.49 µM	1.3 µM	3.66 µM			0.267 µM	1.05 µM	1.28 µM	8.24 µM	7.29 µM	16.5 µM	18.4 µM	8.42 µM
CNCCOC(=O)/C=C1/CCC2C(C(O)CC3C(C)(C(=O)OC)CCCC23C)C1C (centres undefined)	0.0206 µM	0.0408 µM	0.0308 µM	0.0953 µM	0.0168 µM	0.0351 µM	0.018 µM	0.0331 µM	0.0258 µM	0.0654 µM	0.0181 µM	0.0397 µM	0.0183 µM	0.0341 µM	0.013 µM	0.0259 µM	0.0243 µM	0.0764 µM	0.0276 µM	< 0.0139 µM
Cc1ccc(F)cc1NC(=O)c1cc(Cl)ccc1Nc1ccccc1	40.7 µM	> 100 µM	67.6 µM	> 100 µM	> 100 µM	> 100 µM	58.8 µM	> 100 µM	> 100 µM	> 100 µM	22.7 µM	> 100 µM	> 100 µM	> 100 µM	79 µM	> 100 µM	32 µM	> 100 µM	> 100 µM	> 100 µM
